Assays:
histamine H1 receptor = molecular target: T1, histamine H1 receptor (Homo sapiens, UniProt P35367); assay: Histamine-induced calcium streams in SK-N-SH cells, Phase 1 (H1 receptor antagonism); type: cell-based; details: Phase 1: compounds prevent calcium ions entry in cells by antagonistic action on H1-receptors, histamine 10 μM, read-out: pIC50 Phase 1 (converted)
T1 construct: host or cells: SK-N-SH
Procedure: (§1) Tests of biological activity of compounds of general formula 1. In order to determine a physiological activity of the proposed compounds a focused library was compiled to include compounds of general formula 1, some of which are shown in Table 2 below. The compounds were tested as potential histamine H1 receptor antagonists, and their ability to regulate cytosolic calcium ions concentration in cells by blocking calcium channels regulated by intracellular calcium repositories was determined. Cells SK-N-SH (ATCC, USA) were grown on DMEM medium (Invitrogen, USA), containing 10% fetal calf serum (FBS) and antibiotic penicillin-streptomycin in CO2 incubator (5% CO2) until cell density was 1*10^5 cells/cm^2. The cells were removed from flask surface by reagent TrypLE Express (Invitrogen, USA), collected by centrifugation and resuspended in medium Hybridoma Serum Free Medium (HSFM, Sigma, USA) in concentration of 4*10^6 cells/ml. For measurement of cytosolic calcium concentration the cells were loaded with calcium sensitive fluorescent dye Fura 2 AM (Invitrogen, USA) by means of hatching of cells with a dye in suspension for 30 minutes at room temperature. The cells were collected by centrifugation, resuspended in HSFM, incubated in suspension for 15 minutes, collected by centrifugation, washed twice in HSFM and resuspended in HSFM in concentration of 4*10^6 cells/ml.
(§2) Registration of calcium streams in cells was carried out using spectrofluorometer Shimadzu-RF5301PC. The cells were diluted with buffer (NaCl 0.145 M, KCl 0.0054 M, NaH2PO4 0.001 M, MgSO4 0.0008 M, CaCl2 0.0018 M, HEPES 0.03 M, D-glucose 0.0112 M pH 7.4) till concentration 1*10^5 cells/ml in measuring cuvette provided with magnetic stirrer, and fluorescence was registered using a regime of two-wave excitement (340 and 380 nm, respectively) at wavelength of emission 510 nm (F1 and F2, respectively). In 20 seconds after beginning of registration 10 mM of histamine water solution was added (final concentration is 10 μM). In another 30 seconds, after achievement of calcium cytosolic concentration peak a solution of tested compound in DMSO was added and registration was continued for 3 minutes. Serial dilutions of the compounds in dimethylsulfoxide (DMSO) were prepared for determination of their biological activity, and the effect of the concentration of compound on the calcium streams induced by histamine was determined.
Transformation of fluorescence signal into calcium concentration was carried out by means of equation imbedded in program Super Ion Probe (Shimadzu), for which maximum of free calcium concentration by addition of digitonin (Sigma, USA) up to concentration of 0.1 mg/ml and zero calcium concentration by addition of ethylenediamine-tetraacetate (EDTA) up to concentration of 10 mM were determined. Kinetic curves of cytosolic calcium decrease after addition of tested compound compared to concentration after addition of histamine were calculated using single-phase exponential model by means of Prism 4 (GraphPad Software, Inc.) program: […]
In Table 2 below the values corresponding to the reciprocal logarithm of EC50(−LogEC50=pEC50) for some of tested compounds of general formula 1 used as measures of these compounds activity are presented.

[1] = tested on: cytosolic calcium ions concentration in cells; assay: Histamine-induced calcium streams in SK-N-SH cells, Phase 2 (acceleration of cytosolic calcium removal); type: cell-based; details: Homo sapiens, Phase 2: acceleration of intraplasmatic calcium removal, histamine 10 μM, read-out: pIC50 Phase 2 (converted)
Procedure: as §1, §2
Transformation of fluorescence signal into calcium concentration was carried out by means of equation imbedded in program Super Ion Probe (Shimadzu), for which maximum of free calcium concentration by addition of digitonin (Sigma, USA) up to concentration of 0.1 mg/ml and zero calcium concentration by addition of ethylenediamine-tetraacetate (EDTA) up to concentration of 10 mM were determined. Kinetic curves of cytosolic calcium decrease after addition of tested compound compared to concentration after addition of histamine were calculated using single-phase exponential model by means of Prism 4 (GraphPad Software, Inc.) program:
[Ca]=[Ca]max*exp(−K*T)+[Ca]min,
wherein T means time after addition of tested compound, [Ca]max and [Ca]min correspond to maximum (peak meaning after addition of histamine) and minimum (equilibrium level to which the curve converges after addition of tested compound) concentrations of cytosolic calcium, and K means a kinetic constant of the decrease of cytosolic calcium concentration which is calculated by minimization of the least squares of deviations.
The dependence of calculated constants of calcium decreasing (K) on the concentration of tested compound (C) was drawn up, and using this dependence by means of program Prism 4 the value of EC50 (concentration of tested compound corresponding to half-maximum increase of a kinetic constant of cytozoic calcium concentration decrease) was defined using four parametrical equation. […]

T1 sequence (P35367 whole entry): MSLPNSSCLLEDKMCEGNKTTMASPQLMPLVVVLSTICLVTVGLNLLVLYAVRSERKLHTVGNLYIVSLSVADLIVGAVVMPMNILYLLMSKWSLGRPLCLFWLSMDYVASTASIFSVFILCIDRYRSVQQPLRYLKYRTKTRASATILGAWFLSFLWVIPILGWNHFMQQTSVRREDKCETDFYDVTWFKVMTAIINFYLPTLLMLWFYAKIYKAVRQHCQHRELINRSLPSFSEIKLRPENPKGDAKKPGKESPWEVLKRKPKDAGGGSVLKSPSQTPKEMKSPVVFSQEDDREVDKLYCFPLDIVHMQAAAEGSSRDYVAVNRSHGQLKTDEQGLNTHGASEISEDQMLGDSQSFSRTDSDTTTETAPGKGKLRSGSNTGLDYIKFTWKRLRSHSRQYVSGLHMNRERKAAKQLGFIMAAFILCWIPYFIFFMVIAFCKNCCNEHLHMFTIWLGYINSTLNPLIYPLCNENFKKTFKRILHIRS

SMILES	IC50 (histamine H1 receptor) [nM]	IC50 [1] [nM]
Cc1ccc2c(c1)[C@@H]1CN(C)CCC[C@H]1N2CCc1ccccn1 (relative stereo) [1.2.5(1), trans-2,9-dimethyl-6-[2-(pyridin-2-yl)ethyl]-1,2,3,4,5,5a,6,10b-octahydroazepino[4,3-b]indole]	1000	2510
Cc1ccc2[nH]c3c(c2c1)CN(C)CCC3 [1.1.3.3(1), 2,9-dimethyl-1,2,3,4,5,6-hexahydroazepino[4,3-b]indole]	> 100000	> 100000
Cc1ccc2[nH]c3c(c2c1)CN(C(=O)c1ccccc1)CCC3 [1.1.3.4(1), 2-benzoyl-9-methyl-1,2,3,4,5,6-hexahydroazepino[4,3-b]indole]	> 100000	> 100000
Cc1ccc2[nH]c3c(c2c1)CN(C(=O)Nc1ccccc1)CCC3 [1.1.3.5(1), 2-phenylcarbamoyl-9-methyl-1,2,3,4,5,6-hexahydroazepino[4,3-b]indole]	> 100000	> 100000
CN1CCC[C@@H]2[C@@H](C1)c1cc(F)ccc1N2CCc1cccnc1 (relative stereo) [1.2.5(5), trans-2-methyl-6-[2-(pyridin-3-yl)ethyl]-9-fluoro-1,2,3,4,5,5a,6,10b-octahydroazepino[4,3-b]indole]	126	631
Cc1ccc2c(c1)[C@@H]1CN(C)CCC[C@H]1N2CCc1cccnc1 (relative stereo) [1.2.5(4), trans-2,9-dimethyl-6-[2-(pyridin-3-yl)ethyl]-1,2,3,4,5,5a,6,10b-octahydroazepino[4,3-b]indole]	158	2510
Cc1ccc2c(c1)[C@@H]1CN(C)CCC[C@H]1N2Cc1ccccn1 (relative stereo) [1.2.6(4), trans-2,9-dimethyl-6-(pyridin-2-ylmethyl)-1,2,3,4,5,5a,6,10b-octahydroazepino[4,3-b]indole]	631	1580
Cc1ccc2c(c1)c1c(n2CCc2ccccn2)CCCN(C)C1 [1.1.5(1), 2,9-dimethyl-6-[2-(pyridin-2-yl)ethyl]-1,2,3,4,5,6-hexahydroazepino[4,3-b]indole]	3160	3160
Cc1ccc2c(c1)[C@@H]1CN(C)CCC[C@H]1N2Cc1cccnc1 (relative stereo) [1.2.6(5), trans-2,9-dimethyl-6-(pyridin-3-ylmethyl)-1,2,3,4,5,5a,6,10b-octahydroazepino[4,3-b]indole]	100	1580
CN1CCC[C@@H]2[C@@H](C1)c1cc(-c3ccncc3)ccc1N2CCc1cccnc1 (relative stereo) [1.2.5(6), trans-2-methyl-6-[2-(pyridin-3-yl)ethyl]-9-(pyridin-4-yl)-1,2,3,4,5,5a,6,10b-octahydroazepino[4,3-b]indole]	251	1000
Cc1ccc2c(c1)[C@@H]1CN(C)CCC[C@H]1N2CCc1ccccc1 (relative stereo) [1.2.6(3), trans-2,9-dimethyl-6-phenethyl-1,2,3,4,5,5a,6,10b-octahydroazepino[4,3-b]indole]	158	2000
Cc1ccc2c(c1)[C@@H]1CN(C)CCC[C@H]1N2CCc1ccncc1 (relative stereo) [1.2.5(3), trans-2,9-dimethyl-6-[2-(pyridin-4-yl)ethyl]-1,2,3,4,5,5a,6,10b-octahydroazepino[4,3-b]indole]	158	1000
Cc1ccc2c(c1)[C@@H]1CN(C)CCC[C@H]1N2Cc1ccccc1 (relative stereo) [1.2.6(1), trans-6-benzyl-2,9-dimethyl-1,2,3,4,5,5a,6,10b-octahydroazepino[4,3-b]indole]	126	631
Cc1ccc2c(c1)[C@@H]1CN(C)CCC[C@H]1N2Cc1ccc(C(=O)O)cc1 (relative stereo) [1.2.6(2), trans-4-(2,9-dimethyl-1,2,3,4,5,5a,10b-octahydroazepino[4,3-b]indol-6-ylmethyl)benzoic acid]	> 100000	> 100000
Cc1ccc2c(c1)c1c(n2CCc2ccc(C)nc2)CCCN(C)C1 [1.1.5(2), 2,9-dimethyl-6-[2-(6-methylpyridin-3-yl)ethyl]-1,2,3,4,5,6-hexahydroazepino[4,3-b]indole]	316	1580
CC(=O)N1c2ccc(C)cc2[C@@H]2CN(C)CCC[C@H]21 (relative stereo) [1.2.7(4), trans-6-acetyl-2,9-dimethyl-1,2,3,4,5,5a,6,10b-octahydroazepino[4,3-b]indole]	> 100000	> 100000
Cc1ccc2[nH]c3c(c2c1)CN(S(=O)(=O)c1ccccc1)CCC3 [1.1.3.6(1), 2-phenylsulfonyl-9-methyl-1,2,3,4,5,6-hexahydroazepino[4,3-b]indole]	> 100000	> 100000
Cc1ccc2c(c1)c1c(n2CCc2cccnc2)CCCN(C)C1 [1.1.5(5)]	501	3160
Cc1ccc2c(c1)[C@@H]1CN(C)CCC[C@H]1N2C(=O)c1ccccc1 (relative stereo) [1.2.7(3), trans-6-benzoyl-2,9-dim ethyl-1,2,3,4,5,5a,6,10b-octahydroazepino[4,3-b]indole]	> 100000	> 100000
Cc1ccc2c(c1)[C@@H]1CN(C)CCC[C@H]1N2Cc1ccncc1 (relative stereo) [1.2.6(6), trans-2,9-dimethyl-6-(pyridin-4-ylmethyl)-1,2,3,4,5,5a,6,10b-octahydroazepino[4,3-b]indole]	200	5010
Cc1ccc2c(c1)[C@@H]1CN(C)CCC[C@H]1N2CCc1ccc(C)nc1 (relative stereo) [1.2.5(2), trans-2,9-dimethyl-6-[2-(6-methylpyridin-3-yl)ethyl]-1,2,3,4,5,5a,6,10b-octahydroazepino[4,3-b]indole]	251	1000
Cc1ccc2c(c1)c1c(n2CCc2ccncc2)CCCN(C)C1 [1.1.5(3), 2,9-dimethyl-6-[2-(pyridin-4-yl)ethyl]-1,2,3,4,5,6-hexahydroazepino[4,3-b]indole]	200	1260
